Test results published in publication PMC4457528, “Identification of Novel Small Molecule Inhibitors of Oncogenic RET Kinase” (PLoS ONE, 2015).
Read-outs that look alike come from different tables or passages of the source.

How the values were obtained:
Assay in all cases: KinomeScan kinase panel, single concentration 10 µM
Assay type in all cases: binding
[1] = target: T1, KinomeScan kinase panel (Homo sapiens, UniProt Q8IYT8); conditions: kinase ULK2; 10 µM; read-out: score (%)
T1 construct: purchased DiscoveRx (KinomeScan)
T1 sequence (Q8IYT8 1-1036): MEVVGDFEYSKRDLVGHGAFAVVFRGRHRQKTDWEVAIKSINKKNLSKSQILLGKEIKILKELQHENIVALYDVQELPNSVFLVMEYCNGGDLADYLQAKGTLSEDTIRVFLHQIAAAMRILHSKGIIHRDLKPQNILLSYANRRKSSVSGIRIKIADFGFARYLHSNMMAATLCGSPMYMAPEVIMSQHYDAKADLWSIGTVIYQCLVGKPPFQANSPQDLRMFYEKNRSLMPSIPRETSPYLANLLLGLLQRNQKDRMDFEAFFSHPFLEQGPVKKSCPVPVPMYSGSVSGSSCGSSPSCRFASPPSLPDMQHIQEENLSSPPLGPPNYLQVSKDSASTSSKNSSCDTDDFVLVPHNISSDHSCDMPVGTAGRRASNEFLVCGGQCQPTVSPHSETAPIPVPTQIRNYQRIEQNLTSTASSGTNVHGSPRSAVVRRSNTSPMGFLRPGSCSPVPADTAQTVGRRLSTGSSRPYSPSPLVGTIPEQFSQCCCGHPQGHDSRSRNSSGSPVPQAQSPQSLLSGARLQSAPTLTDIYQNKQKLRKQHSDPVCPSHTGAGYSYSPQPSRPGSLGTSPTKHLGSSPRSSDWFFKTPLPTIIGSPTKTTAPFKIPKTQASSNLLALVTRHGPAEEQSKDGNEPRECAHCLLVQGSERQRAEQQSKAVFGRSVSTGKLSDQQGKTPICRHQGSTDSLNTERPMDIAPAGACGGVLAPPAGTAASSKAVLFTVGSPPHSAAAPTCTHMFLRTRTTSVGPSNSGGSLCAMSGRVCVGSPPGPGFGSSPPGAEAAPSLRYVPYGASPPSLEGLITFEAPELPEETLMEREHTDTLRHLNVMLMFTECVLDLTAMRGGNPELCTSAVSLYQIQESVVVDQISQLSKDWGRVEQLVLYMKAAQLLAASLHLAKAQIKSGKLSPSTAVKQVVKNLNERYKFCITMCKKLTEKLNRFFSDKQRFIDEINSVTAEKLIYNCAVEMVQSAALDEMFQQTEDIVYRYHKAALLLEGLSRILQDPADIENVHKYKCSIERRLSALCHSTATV

[2] = target: T2, KinomeScan kinase panel (Homo sapiens, UniProt Q8IU85); conditions: CAMK1D, 10 µM; read-out: score (%)
T2 construct: purchased DiscoveRx (KinomeScan)

[3] = target: T3, KinomeScan kinase panel (Homo sapiens, UniProt Q9H2K8); conditions: read-out: score (%)
T3 construct: purchased DiscoveRx (KinomeScan)
T3 sequence (Q9H2K8 1-898): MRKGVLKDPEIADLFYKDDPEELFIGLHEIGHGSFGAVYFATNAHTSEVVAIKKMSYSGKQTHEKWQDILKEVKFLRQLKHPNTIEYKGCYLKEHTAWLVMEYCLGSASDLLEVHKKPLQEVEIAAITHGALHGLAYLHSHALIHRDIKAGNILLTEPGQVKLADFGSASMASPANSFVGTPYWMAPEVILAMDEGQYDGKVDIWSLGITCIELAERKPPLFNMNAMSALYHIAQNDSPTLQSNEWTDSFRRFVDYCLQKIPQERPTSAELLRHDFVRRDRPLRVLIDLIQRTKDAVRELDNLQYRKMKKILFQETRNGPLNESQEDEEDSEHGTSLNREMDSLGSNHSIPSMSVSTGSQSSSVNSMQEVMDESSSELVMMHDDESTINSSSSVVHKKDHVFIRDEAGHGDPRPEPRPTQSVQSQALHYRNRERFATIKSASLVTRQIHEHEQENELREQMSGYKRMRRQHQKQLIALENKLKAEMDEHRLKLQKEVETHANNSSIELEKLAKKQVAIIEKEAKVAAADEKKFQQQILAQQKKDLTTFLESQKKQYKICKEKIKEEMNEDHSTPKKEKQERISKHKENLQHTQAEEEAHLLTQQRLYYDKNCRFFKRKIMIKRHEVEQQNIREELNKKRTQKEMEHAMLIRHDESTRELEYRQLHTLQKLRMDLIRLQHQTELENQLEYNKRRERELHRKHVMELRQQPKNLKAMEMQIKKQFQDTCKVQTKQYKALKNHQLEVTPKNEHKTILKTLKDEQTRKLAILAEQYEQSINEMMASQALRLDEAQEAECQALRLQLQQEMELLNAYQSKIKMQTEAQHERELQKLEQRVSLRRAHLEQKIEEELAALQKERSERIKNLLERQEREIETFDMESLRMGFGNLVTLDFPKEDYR

[4] = target: T4, KinomeScan kinase panel (Homo sapiens, UniProt P21709); conditions: EPHA1, 10 µM; read-out: score (%)
T4 construct: purchased DiscoveRx (KinomeScan)
T4 sequence (P21709 26-976): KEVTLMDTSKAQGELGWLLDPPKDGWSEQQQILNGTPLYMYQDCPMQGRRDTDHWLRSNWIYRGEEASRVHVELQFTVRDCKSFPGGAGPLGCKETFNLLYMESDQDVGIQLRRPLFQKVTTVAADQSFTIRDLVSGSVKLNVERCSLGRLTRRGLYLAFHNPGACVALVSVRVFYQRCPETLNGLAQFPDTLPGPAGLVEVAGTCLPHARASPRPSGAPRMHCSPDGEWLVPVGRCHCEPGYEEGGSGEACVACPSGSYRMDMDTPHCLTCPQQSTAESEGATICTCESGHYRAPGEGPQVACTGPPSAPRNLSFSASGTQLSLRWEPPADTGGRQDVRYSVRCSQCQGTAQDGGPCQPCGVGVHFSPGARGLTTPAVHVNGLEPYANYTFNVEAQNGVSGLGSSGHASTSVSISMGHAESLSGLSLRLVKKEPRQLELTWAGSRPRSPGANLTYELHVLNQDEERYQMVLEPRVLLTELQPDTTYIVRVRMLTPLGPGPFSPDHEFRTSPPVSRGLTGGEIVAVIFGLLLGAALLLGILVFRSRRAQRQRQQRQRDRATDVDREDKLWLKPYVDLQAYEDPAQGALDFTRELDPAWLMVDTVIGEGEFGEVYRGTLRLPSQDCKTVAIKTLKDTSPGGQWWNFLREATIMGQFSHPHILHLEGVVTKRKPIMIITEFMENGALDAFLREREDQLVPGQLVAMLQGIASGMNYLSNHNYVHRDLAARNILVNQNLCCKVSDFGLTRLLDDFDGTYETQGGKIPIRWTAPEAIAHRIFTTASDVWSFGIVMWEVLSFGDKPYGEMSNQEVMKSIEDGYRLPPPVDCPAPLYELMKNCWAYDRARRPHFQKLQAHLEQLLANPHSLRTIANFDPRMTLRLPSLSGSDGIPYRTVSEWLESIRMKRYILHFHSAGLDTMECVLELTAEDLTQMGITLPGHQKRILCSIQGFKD

T2 sequence (Q8IU85 whole entry): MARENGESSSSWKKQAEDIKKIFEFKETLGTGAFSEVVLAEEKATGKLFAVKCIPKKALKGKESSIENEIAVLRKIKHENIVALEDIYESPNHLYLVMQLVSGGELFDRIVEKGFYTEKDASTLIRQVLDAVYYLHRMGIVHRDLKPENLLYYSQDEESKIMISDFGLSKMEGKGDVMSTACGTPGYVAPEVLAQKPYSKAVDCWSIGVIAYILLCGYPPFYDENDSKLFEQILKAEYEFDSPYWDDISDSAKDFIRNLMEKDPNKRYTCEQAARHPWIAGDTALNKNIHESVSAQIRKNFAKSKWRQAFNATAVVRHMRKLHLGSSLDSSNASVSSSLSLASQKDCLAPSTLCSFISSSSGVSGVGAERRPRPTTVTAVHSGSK

| SMILES | remaining binding at 10 µM [1] [%] | remaining binding at 10 µM [2] [%] | remaining binding at 10 µM ([3]; kinase TAOK3, 10 µM) [%] | remaining binding at 10 µM [4] [%] | remaining binding at 10 µM ([3]; TAOK3, 10 µM) [%] |
| --- | --- | --- | --- | --- | --- |
| CCN1CCN(Cc2ccc(NC(=O)c3ccc(C)c(NC(=O)c4cncc(-c5cccs5)c4)c3)cc2C(F)(F)F)CC1 [ALW-II-41-27] | > 30 | > 30 | 2.8 | 3.8 |  |
| CCN1CCN(Cc2ccc(NC(=O)c3ccc(C)c(/C=C/c4cnc5[nH]ccc5c4Cl)c3)cc2C(F)(F)F)CC1 [HG-6-63-01, (E)-3-(2-(4-chloro-1H-pyrrolo[2,3-b]pyridin-5-yl)vinyl)-N-(4-((4-ethylpiperazin-1-yl)methyl)-3-(trifluoromethyl)phenyl)-4-methylbenzamide] | 27 | > 30 |  | 5.5 | 0.1 |
| CCN1CCN(Cc2ccc(NC(=O)c3ccc(C)c(C#Cc4cccnc4)c3)cc2C(F)(F)F)CC1 [XMD15-44] | 50 | > 30 | 0 | 1.2 |  |
